{
  "source": "PubChem BioAssay (NCI)",
  "assay_in_all_cases": "NCI anticancer screen, dose series, 48 h",
  "key": {"[1]": {"test_system": "RXF-631 renal"}, "[2]": {"test_system": "LXFL 529 NSCLC"}, "[3]": {"test_system": "MCF7 breast"}, "[4]": {"test_system": "T-47D breast"}, "[5]": {"test_system": "NCI/ADR-RES ovarian"}, "[6]": {"test_system": "DMS 273 small cell lung"}, "[7]": {"test_system": "XF 498 CNS"}, "[8]": {"test_system": "HOP-18 NSCLC"}, "[9]": {"test_system": "MDA-N"}},
  "note": "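Assay format: 96-well plates, 48-hour exposure. The concentration for 50% growth inhibition is given as GI50. TGI: total growth inhibition.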",
  "data": [
    {"smiles": "NC1=C(Br)C(=O)c2ncccc2C1=O", "values": [
      {"measurement": "TGI", "setting": "[1]", "value": 3.73, "unit": "µM"},
      {"measurement": "TGI", "setting": "[2]", "value": 0.8, "unit": "µM"},
      {"measurement": "GI50", "setting": "[3]", "value": 0.367, "unit": "µM"},
      {"measurement": "TGI", "setting": "[3]", "value": 1.99, "unit": "µM"},
      {"measurement": "GI50", "setting": "[4]", "value": 1.69, "unit": "µM"},
      {"measurement": "TGI", "setting": "[4]", "value": 4.1, "unit": "µM"},
      {"measurement": "GI50", "setting": "[5]", "value": 0.987, "unit": "µM"},
      {"measurement": "TGI", "setting": "[5]", "value": 6.12, "unit": "µM"},
      {"measurement": "TGI", "setting": "[6]", "value": 1.44, "unit": "µM"},
      {"measurement": "TGI", "setting": "[7]", "value": 2.16, "unit": "µM"}
    ]},
    {"smiles": "COc1ccc(C2=NN(C(=O)COc3ccc(Cl)cc3)C(O)(c3ccc(Cl)cc3)C2)cc1", "note": "(stereo unspecified)", "values": [
      {"measurement": "TGI", "setting": "[1]", "value": "> 100", "unit": "µM"},
      {"measurement": "TGI", "setting": "[2]", "value": "> 100", "unit": "µM"},
      {"measurement": "TGI", "setting": "[6]", "value": "> 100", "unit": "µM"},
      {"measurement": "TGI", "setting": "[7]", "value": "> 100", "unit": "µM"}
    ]},
    {"smiles": "COc1cc(Cn2c(=S)ss/c2=N\\C(=S)N(C)C)cc(OC)c1OC", "values": [
      {"measurement": "TGI", "setting": "[1]", "value": "> 100", "unit": "µM"},
      {"measurement": "TGI", "setting": "[2]", "value": "> 100", "unit": "µM"},
      {"measurement": "TGI", "setting": "[3]", "value": "> 100", "unit": "µM"},
      {"measurement": "TGI", "setting": "[4]", "value": "> 100", "unit": "µM"},
      {"measurement": "TGI", "setting": "[5]", "value": "> 100", "unit": "µM"},
      {"measurement": "TGI", "setting": "[8]", "value": "> 100", "unit": "µM"},
      {"measurement": "TGI", "setting": "[9]", "value": 3.01, "unit": "µM"},
      {"measurement": "TGI", "setting": "[6]", "value": "> 100", "unit": "µM"}
    ]},
    {"smiles": "Fc1cccc2cc3ccc4cccc5ccc(c12)c3c45", "values": [
      {"measurement": "TGI", "setting": "[1]", "value": "> 100", "unit": "µM"},
      {"measurement": "TGI", "setting": "[2]", "value": "> 100", "unit": "µM"},
      {"measurement": "TGI", "setting": "[8]", "value": 12.8, "unit": "µM"},
      {"measurement": "TGI", "setting": "[6]", "value": "> 100", "unit": "µM"},
      {"measurement": "TGI", "setting": "[7]", "value": "> 100", "unit": "µM"}
    ]},
    {"smiles": "Cc1cccc(NC(=O)c2cc3cc(N=Nc4ccccc4Cl)ccc3oc2=O)c1", "values": [
      {"measurement": "TGI", "setting": "[1]", "value": "> 100", "unit": "µM"},
      {"measurement": "TGI", "setting": "[2]", "value": "> 100", "unit": "µM"},
      {"measurement": "TGI", "setting": "[8]", "value": "> 100", "unit": "µM"},
      {"measurement": "TGI", "setting": "[6]", "value": "> 100", "unit": "µM"},
      {"measurement": "TGI", "setting": "[7]", "value": 64.5, "unit": "µM"}
    ]},
    {"smiles": "CCOC(=O)C1=C(NNC(=O)Cc2ccccc2)CSC1=Nc1ccccc1", "values": [
      {"measurement": "TGI", "setting": "[1]", "value": "> 100", "unit": "µM"},
      {"measurement": "TGI", "setting": "[2]", "value": "> 100", "unit": "µM"},
      {"measurement": "TGI", "setting": "[8]", "value": "> 100", "unit": "µM"},
      {"measurement": "TGI", "setting": "[6]", "value": "> 100", "unit": "µM"},
      {"measurement": "TGI", "setting": "[7]", "value": "> 100", "unit": "µM"}
    ]},
    {"smiles": "C/C([O-])=C1\\Cc2ccccc2C1=O.C/C([O-])=C1\\Cc2ccccc2C1=O.CC[O-].CC[O-].[Ti+4]", "values": [
      {"measurement": "GI50", "setting": "[1]", "value": 6.96, "unit": "µM"},
      {"measurement": "TGI", "setting": "[1]", "value": 29.1, "unit": "µM"},
      {"measurement": "GI50", "setting": "[2]", "value": 12.3, "unit": "µM"},
      {"measurement": "TGI", "setting": "[2]", "value": 35.5, "unit": "µM"},
      {"measurement": "GI50", "setting": "[3]", "value": 22, "unit": "µM"},
      {"measurement": "TGI", "setting": "[3]", "value": "> 100", "unit": "µM"},
      {"measurement": "GI50", "setting": "[4]", "value": 15.5, "unit": "µM"},
      {"measurement": "TGI", "setting": "[4]", "value": 92.4, "unit": "µM"},
      {"measurement": "GI50", "setting": "[5]", "value": 23.4, "unit": "µM"},
      {"measurement": "TGI", "setting": "[5]", "value": "> 100", "unit": "µM"},
      {"measurement": "GI50", "setting": "[8]", "value": 32.5, "unit": "µM"},
      {"measurement": "TGI", "setting": "[8]", "value": 80, "unit": "µM"},
      {"measurement": "GI50", "setting": "[9]", "value": 17.1, "unit": "µM"},
      {"measurement": "TGI", "setting": "[9]", "value": 42.3, "unit": "µM"},
      {"measurement": "GI50", "setting": "[6]", "value": 8.38, "unit": "µM"},
      {"measurement": "TGI", "setting": "[6]", "value": 31.4, "unit": "µM"}
    ]},
    {"smiles": "CCC(CC)n1cc(C(=O)NC(=O)NCCCCCOC(=O)CCCCCCCCCCC(=O)OCCCCCNC(=O)NC(=O)c2cn(C(CC)CC)c(=O)[nH]c2=O)c(=O)[nH]c1=O", "values": [
      {"measurement": "TGI", "setting": "[1]", "value": "> 100", "unit": "µM"},
      {"measurement": "TGI", "setting": "[2]", "value": "> 100", "unit": "µM"},
      {"measurement": "TGI", "setting": "[8]", "value": "> 100", "unit": "µM"},
      {"measurement": "TGI", "setting": "[6]", "value": "> 100", "unit": "µM"},
      {"measurement": "TGI", "setting": "[7]", "value": "> 100", "unit": "µM"}
    ]},
    {"smiles": "COC(=O)C1C2C=CC(C2)C1(C(=O)OC)S(=O)CC12CCC(CC1O)C2(C)C", "note": "(stereo unspecified)", "values": [
      {"measurement": "TGI", "setting": "[1]", "value": "> 100", "unit": "µM"},
      {"measurement": "TGI", "setting": "[2]", "value": "> 100", "unit": "µM"},
      {"measurement": "TGI", "setting": "[8]", "value": "> 100", "unit": "µM"},
      {"measurement": "TGI", "setting": "[6]", "value": "> 100", "unit": "µM"},
      {"measurement": "TGI", "setting": "[7]", "value": "> 100", "unit": "µM"}
    ]},
    {"smiles": "O=C1OC(CC(=O)c2ccc(Cl)cc2Cl)C(Cl)=C1Cl", "note": "(stereo unspecified)", "values": [
      {"measurement": "TGI", "setting": "[1]", "value": "> 75.5", "unit": "µM"},
      {"measurement": "TGI", "setting": "[2]", "value": 32.1, "unit": "µM"},
      {"measurement": "TGI", "setting": "[8]", "value": "> 100", "unit": "µM"},
      {"measurement": "TGI", "setting": "[6]", "value": "> 100", "unit": "µM"},
      {"measurement": "TGI", "setting": "[7]", "value": 45.6, "unit": "µM"}
    ]},
    {"smiles": "O=c1[nH]nc2ccccc2c1Cl", "values": [
      {"measurement": "TGI", "setting": "[1]", "value": 28.4, "unit": "µM"},
      {"measurement": "TGI", "setting": "[8]", "value": 29.1, "unit": "µM"},
      {"measurement": "TGI", "setting": "[6]", "value": 35.5, "unit": "µM"},
      {"measurement": "TGI", "setting": "[7]", "value": 28.1, "unit": "µM"}
    ]},
    {"smiles": "C=CN1C(=O)OC[C@@H]1c1ccccc1", "values": [
      {"measurement": "TGI", "setting": "[1]", "value": "> 100", "unit": "µM"},
      {"measurement": "TGI", "setting": "[2]", "value": "> 100", "unit": "µM"},
      {"measurement": "TGI", "setting": "[8]", "value": "> 100", "unit": "µM"},
      {"measurement": "TGI", "setting": "[6]", "value": 50.7, "unit": "µM"},
      {"measurement": "TGI", "setting": "[7]", "value": "> 100", "unit": "µM"}
    ]},
    {"smiles": "[C-]#[O+].[C-]#[O+].[C-]#[O+].[C-]#[O+].[Ir].[Ir].[O-]c1ccc2ccccc2c1C=Nc1ccc(N=Cc2c([O-])ccc3ccccc23)cc1", "values": [
      {"measurement": "GI50", "setting": "[1]", "value": "> 100", "unit": "µM"},
      {"measurement": "TGI", "setting": "[1]", "value": "> 100", "unit": "µM"},
      {"measurement": "GI50", "setting": "[2]", "value": "> 100", "unit": "µM"},
      {"measurement": "TGI", "setting": "[2]", "value": "> 100", "unit": "µM"},
      {"measurement": "GI50", "setting": "[8]", "value": "> 100", "unit": "µM"},
      {"measurement": "TGI", "setting": "[8]", "value": "> 100", "unit": "µM"},
      {"measurement": "GI50", "setting": "[7]", "value": "> 100", "unit": "µM"},
      {"measurement": "TGI", "setting": "[7]", "value": "> 100", "unit": "µM"}
    ]},
    {"smiles": "C=CCN(N=O)C(=O)N(CCCC(NC(C)=O)C(=O)NCc1ccccc1)Cc1ccccc1", "note": "(stereo unspecified)", "values": [
      {"measurement": "TGI", "setting": "[1]", "value": "> 100", "unit": "µM"},
      {"measurement": "TGI", "setting": "[2]", "value": "> 100", "unit": "µM"},
      {"measurement": "TGI", "setting": "[6]", "value": "> 100", "unit": "µM"},
      {"measurement": "TGI", "setting": "[7]", "value": "> 100", "unit": "µM"}
    ]},
    {"smiles": "OCC(O)C(OC1OC(CO)C(O)C(O)C1O)c1nn(-c2ccccc2)c2nc3cc(Cl)c(Cl)cc3cc12", "note": "(stereo unspecified)", "values": [
      {"measurement": "TGI", "setting": "[1]", "value": "> 100", "unit": "µM"},
      {"measurement": "TGI", "setting": "[2]", "value": "> 100", "unit": "µM"},
      {"measurement": "TGI", "setting": "[7]", "value": "> 100", "unit": "µM"}
    ]},
    {"smiles": "NNC(=O)CCC(=O)Nc1cc(Cl)c(Cl)cc1Cl", "values": [
      {"measurement": "TGI", "setting": "[1]", "value": "> 100", "unit": "µM"},
      {"measurement": "TGI", "setting": "[2]", "value": "> 100", "unit": "µM"},
      {"measurement": "TGI", "setting": "[6]", "value": "> 100", "unit": "µM"},
      {"measurement": "TGI", "setting": "[7]", "value": "> 100", "unit": "µM"}
    ]}
  ]
}
